Source: US5677297A, “Benzazepine-, benzoxazepine- and benzothiazepine-n-acetic acid derivatives, process for their preparation and pharmaceutical compositions containing them” (Solvay Pharmaceuticals GmbH, priority 1995, dated 1997)
pIC50: −log10 of the molar value.

Biological target: T1, endothelin-converting enzyme (ECE) (Homo sapiens, UniProt P42892)
T1 construct: expressed in transfected cells; host or cells: CHO cells (Chinese hamster ovary), membrane fraction
T1 sequence (P42892 1-770): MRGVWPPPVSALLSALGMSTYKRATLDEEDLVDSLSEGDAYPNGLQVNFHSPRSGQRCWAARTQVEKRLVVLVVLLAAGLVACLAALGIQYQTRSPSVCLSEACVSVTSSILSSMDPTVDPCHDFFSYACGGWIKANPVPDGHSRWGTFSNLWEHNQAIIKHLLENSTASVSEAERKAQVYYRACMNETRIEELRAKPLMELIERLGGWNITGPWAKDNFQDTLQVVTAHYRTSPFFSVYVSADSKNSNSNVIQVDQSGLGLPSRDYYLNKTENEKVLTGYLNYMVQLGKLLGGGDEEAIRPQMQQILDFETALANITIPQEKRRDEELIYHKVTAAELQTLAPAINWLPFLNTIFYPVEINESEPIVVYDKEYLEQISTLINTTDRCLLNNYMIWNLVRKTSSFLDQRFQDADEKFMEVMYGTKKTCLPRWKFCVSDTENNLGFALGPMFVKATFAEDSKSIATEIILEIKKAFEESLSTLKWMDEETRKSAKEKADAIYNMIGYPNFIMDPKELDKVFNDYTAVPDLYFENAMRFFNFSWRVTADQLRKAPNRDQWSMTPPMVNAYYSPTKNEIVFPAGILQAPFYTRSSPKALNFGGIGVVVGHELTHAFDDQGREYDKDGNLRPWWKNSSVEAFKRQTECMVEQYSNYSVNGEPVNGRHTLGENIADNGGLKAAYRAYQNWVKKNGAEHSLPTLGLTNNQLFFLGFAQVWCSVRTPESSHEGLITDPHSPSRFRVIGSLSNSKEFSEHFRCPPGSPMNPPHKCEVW
Test: In vitro investigation of the ECE-inhibitory effect (recombinant human ECE in CHO cell membrane fraction)
Type: biochemical
Settings: 24 μM synthetic peptide substrate, pH 7.0, 37° C., 60 min
Experimental: 3. In vitro investigations of the ECE-inhibitory effect of the substances.
The IC50 of the substances was determined as a measure of their inhibitory activity. The IC50 of a test substance with enzyme-inhibiting activity is the concentration of the test substance at which 50% of the enzymatic activity of ECE is inhibited.
Preparation of the ECE-containing endothelial cell membrane fraction.
Egg cells from the Chinese hamster (Chinese hamster ovary cells, hereinafter CHO cells) in which there was recombinant expression of human ECE [see Schmidt et al., Federation of European Biochemical Societies Letters 356 238-43 (1994)] were lysed, and the cell membranes were removed by centrifugation at 10,000×g for 10 min. The cell membranes were washed by resuspension and repeated centrifugation three times. The ECE-containing cell membrane fraction was resuspended in 100 mM tris/HCl buffer (tris(hydroxymethyl)aminomethane/HCl, pH 7.0, containing 250 mM NaCl) and stored frozen at -70° C. before the enzyme test.
To carry out the test, respective 100 μl samples of various incubation solutions each containing 5 μg protein from an ECE-containing preparation of endothelial cell membranes and different amounts of test substance and 24 μM substrate (synthetic peptide: H2 N-Asp-Ile-Ala-Trp-Phe-Asn-Thr-Pro-Glu-His-Val-Val-Pro-Tyr-Gly-Leu-Gly-COOH) (SEQ ID NO:1) and 100 mM tris buffer (tris(hydroxymethyl)aminomethane/HCl, pH 7.0, containing 250 mM sodium chloride) were prepared. […]
The incubation solutions were preincubated at 37° C. for 15 min before the substrate was added. […] The hydrolysis products H2N-Asp-Ile-Ala-Trp-COOH (SEQ ID NO:2) and H2 N-Phe-Asn-Thr-Pro-Glu-His-Val-Val-Pro-Tyr-Gly-Leu-Gly-COOH (SEQ ID NO:3) formed from the substrate by the enzymatic reaction were determined with the aid of high-pressure liquid chromatography (HPLC). […] The IC50 was calculated for each test substance in a known manner from the concentrations of hydrolysis products measured in the various samples.

O=C(O)CN1C(=O)[C@@H](NC(=O)C2(C[C@@H](CCc3ccccc3)C(=O)O)CCCC2)CCc2ccccc21 [Example 8, (3S,2'R)-3-[1-(2'-Carboxy-4'-phenylbutyl)cyclopentane-1-carbonylamino]-2,3,4,5-tetrahydro-2-oxo-1H-1-benzazepine-1-acetic acid]
pIC50: 5.89
